Drawing on patent US8440710B2, “HSL inhibitors useful in the treatment of diabetes” (Hoffmann-La Roche Inc., priority 2009, dated 2013), this text covers IC50 for 24 compounds.

This assay concerns the target T1, human HSL (Homo sapiens, UniProt Q05469).
T1 construct: generate a full length human HSL ORF with a 3′-His6 tag; made in house; host or cells: High 5 insect cells (baculovirus, pFast-BAC)
T1 sequence (Q05469 1-1076): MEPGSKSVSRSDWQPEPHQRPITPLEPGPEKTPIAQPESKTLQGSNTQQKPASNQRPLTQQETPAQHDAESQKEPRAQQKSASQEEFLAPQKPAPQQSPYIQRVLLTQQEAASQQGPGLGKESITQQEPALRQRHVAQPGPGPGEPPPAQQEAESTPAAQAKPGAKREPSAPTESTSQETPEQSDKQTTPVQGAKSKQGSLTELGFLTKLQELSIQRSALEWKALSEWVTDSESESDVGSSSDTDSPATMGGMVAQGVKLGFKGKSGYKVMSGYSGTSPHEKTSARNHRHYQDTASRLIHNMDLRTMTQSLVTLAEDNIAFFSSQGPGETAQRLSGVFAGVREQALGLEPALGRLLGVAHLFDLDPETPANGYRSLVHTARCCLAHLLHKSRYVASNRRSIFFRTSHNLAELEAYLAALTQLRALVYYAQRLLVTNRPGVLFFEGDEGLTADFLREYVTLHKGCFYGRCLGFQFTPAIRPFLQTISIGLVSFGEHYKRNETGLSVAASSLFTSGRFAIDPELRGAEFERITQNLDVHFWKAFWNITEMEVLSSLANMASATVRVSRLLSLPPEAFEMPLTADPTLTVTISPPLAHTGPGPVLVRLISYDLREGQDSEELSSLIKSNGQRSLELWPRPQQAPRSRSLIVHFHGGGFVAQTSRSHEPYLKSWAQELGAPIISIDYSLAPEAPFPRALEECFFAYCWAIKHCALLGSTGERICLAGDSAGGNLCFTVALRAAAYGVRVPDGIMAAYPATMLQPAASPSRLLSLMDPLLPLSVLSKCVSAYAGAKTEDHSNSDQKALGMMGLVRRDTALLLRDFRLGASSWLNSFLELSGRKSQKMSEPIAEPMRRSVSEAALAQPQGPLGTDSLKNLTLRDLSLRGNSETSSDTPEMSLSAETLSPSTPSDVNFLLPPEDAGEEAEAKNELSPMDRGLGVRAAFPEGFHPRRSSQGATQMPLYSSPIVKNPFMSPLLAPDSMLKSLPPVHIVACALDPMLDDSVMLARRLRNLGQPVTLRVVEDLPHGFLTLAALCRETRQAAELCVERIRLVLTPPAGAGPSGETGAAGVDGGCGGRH
The assay is described as follows: Human Hormone-Sensitive Lipase (HSL) enzyme inhibition assay (colorimetric, DMPT substrate). The assay is classed as biochemical. Particulars: human full length HSL-His6, 2,3-dimercapto-1-propanol tributyrate substrate, 37° C. 20 minutes, absorbance at 405 nm; read-out: HSL hum IC50. The essentials:
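Full-length human HSL with C-terminal His6, expressed in baculovirus-infected High 5 cells and Ni-NTA purified, was added (15 ug/ml stock) to 1.5 mM DMPT in 100 mM MOPS pH 7.2, 0.2 mg/ml fatty acid-free BSA containing compound. After 20 min at 37 °C, DTNB with SDS/Triton X-100 was added; A405 read after 15 min at RT.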

A word on the IC50: it is the concentration that gives 50% inhibition. Turning to `C[C@@H](Oc1ccc(N2CC[C@]3(CC[C@](O)(COCC(F)F)CC3)C2=O)cn1)C(F)(F)F` [Example 313, (5α,8β)-8-(2,2-Difluoro-ethoxymethyl)-8-hydroxy-2-[6-((R)-2,2,2-trifluoro-1-methyl-ethoxy)-pyridin-3-yl]-2-aza-spiro[4.5]decan-1-one], the IC50 was found to be 280 nM.

Consider `C[C@@H](Oc1ccc(N2CC[C@]3(CC[C@@](O)(COCC(F)F)CC3)C2=O)cn1)C(F)(F)F` [Example 314, (5α,8α)-8-(2,2-Difluoro-ethoxymethyl)-8-hydroxy-2-[6-((R)-2,2,2-trifluoro-1-methyl-ethoxy)-pyridin-3-yl]-2-aza-spiro[4.5]decan-1-one], for which the IC50 turned out to be 20 nM.

Take `CC(C)OC[C@]1(O)CC[C@@]2(CCN(c3ccc(O[C@H](C)C(F)(F)F)nc3)C2=O)CC1` [Example 315, (5α,8β)-8-Hydroxy-8-isopropoxymethyl-2-[6-((R)-2,2,2-trifluoro-1-methyl-ethoxy)-pyridin-3-yl]-2-aza-spiro[4.5]decan-1-one]: the IC50 came out at 180 nM.

With `CC(C)OC[C@]1(O)CC[C@]2(CCN(c3ccc(O[C@H](C)C(F)(F)F)nc3)C2=O)CC1` [Example 316, (5α,8α)-8-Hydroxy-8-isopropoxymethyl-2-[6-((R)-2,2,2-trifluoro-1-methyl-ethoxy)-pyridin-3-yl]-2-aza-spiro[4.5]decan-1-one], the IC50 came to 20 nM.

Turning to `CC(C)[S+]([O-])C[C@]1(O)CC[C@]2(CCN(c3ccc(OCC(F)(F)F)cc3)C2=O)CC1` (stereo partly drawn) [Example 317, (5α,8α)-8-Hydroxy-8-(propane-2-sulfinylmethyl)-2-[4-(2,2,2-trifluoro-ethoxy)-phenyl]-2-aza-spiro[4.5]decan-1-one], the IC50 worked out at 200 nM.

As for `CC(C)S(=O)(=O)C[C@]1(O)CC[C@]2(CCN(c3ccc(OCC(F)(F)F)cc3)C2=O)CC1` [Example 318, (5α,8α)-8-Hydroxy-8-(propane-2-sulfonylmethyl)-2-[4-(2,2,2-trifluoro-ethoxy)-phenyl]-2-aza-spiro[4.5]decan-1-one], the IC50 amounted to 30 nM.

Regarding `CC(C)(C)SC[C@]1(O)CC[C@]2(CCN(c3ccc(OCC(F)(F)F)cc3)C2=O)CC1` [Example 319, (5α,8α)-8-tert-Butylsulfanylmethyl-8-hydroxy-2-[4-(2,2,2-trifluoro-ethoxy)-phenyl]-2-aza-spiro[4.5]decan-1-one], the IC50 was 10 nM.

With `CC(C)SC[C@]1(O)CC[C@]2(CCN(c3ccc(O[C@@H](C)C(F)(F)F)nc3)C2=O)CC1` [Example 320, (5α,8α)-8-Hydroxy-8-isopropylsulfanylmethyl-2-[6-((S)-2,2,2-trifluoro-1-methyl-ethoxy)-pyridin-3-yl]-2-aza-spiro[4.5]decan-1-one], the IC50 worked out at 10 nM.

Turning to `CC(C)SC[C@]1(O)CC[C@]2(CCN(c3ccc(O[C@H](C)C(F)(F)F)nc3)C2=O)CC1` [Example 321, (5α,8α)-8-Hydroxy-8-isopropylsulfanylmethyl-2-[6-((R)-2,2,2-trifluoro-1-methyl-ethoxy)-pyridin-3-yl]-2-aza-spiro[4.5]decan-1-one], the IC50 is 10 nM.

For `CC(C)(C)S(=O)(=O)C[C@]1(O)CC[C@]2(CCN(c3ccc(OCC(F)(F)F)cc3)C2=O)CC1` [Example 322, (5α,8α)-8-Hydroxy-8-(2-methyl-propane-2-sulfonylmethyl)-2-[4-(2,2,2-trifluoro-ethoxy)-phenyl]-2-aza-spiro[4.5]decan-1-one], the half-inhibitory concentration (IC50) came out at 20 nM.

For the compound `CC(C)S(=O)(=O)C[C@]1(O)CC[C@]2(CCN(c3ccc(O[C@@H](C)C(F)(F)F)nc3)C2=O)CC1` [Example 323, (5α,8α)-8-Hydroxy-8-(propane-2-sulfonylmethyl)-2-[6-((S)-2,2,2-trifluoro-1-methyl-ethoxy)-pyridin-3-yl]-2-aza-spiro[4.5]decan-1-one], the IC50 worked out at 10 nM.

Take `CC(C)S(=O)(=O)C[C@]1(O)CC[C@]2(CCN(c3ccc(O[C@H](C)C(F)(F)F)nc3)C2=O)CC1` [Example 324, (5α,8α)-8-Hydroxy-8-(propane-2-sulfonylmethyl)-2-[6-((R)-2,2,2-trifluoro-1-methyl-ethoxy)-pyridin-3-yl]-2-aza-spiro[4.5]decan-1-one]: the IC50 worked out at 20 nM.

On to `C[C@H](Oc1ccc(N2CC[C@]3(CC[C@@](O)(CS(=O)(=O)C(C)(C)C)CC3)C2=O)cn1)C(F)(F)F` [Example 325, (5α,8α)-8-Hydroxy-8-(2-methyl-propane-2-sulfonylmethyl)-2-[6-((S)-2,2,2-trifluoro-1-methyl-ethoxy)pyridin-3-yl]-2-aza-spiro[4.5]decan-1-one], for which the IC50 amounted to 10 nM.

Turning to `C[C@@H](Oc1ccc(N2CC[C@]3(CC[C@@](O)(CS(=O)(=O)C(C)(C)C)CC3)C2=O)cn1)C(F)(F)F` [Example 326, (5α,8α)-8-Hydroxy-8-(2-methyl-propane-2-sulfonylmethyl)-2-[6-((R)-2,2,2-trifluoro-1-methyl-ethoxy)-pyridin-3-yl]-2-aza-spiro[4.5]decan-1-one], the IC50 stood at 10 nM.

Take `C[C@@H](Oc1ccc(N2CC[C@]3(CC[C@@](O)(COCC(F)(F)F)CC3)C2=O)cn1)C(F)(F)F` [Example 327, (5α,8α)-8-Hydroxy-8-(2,2,2-trifluoro-ethoxymethyl)-2-[6-((R)-2,2,2-trifluoro-1-methyl-ethoxy)-pyridin-3-yl]-2-aza-spiro[4.5]decan-1-one]: the IC50 was found to be 30 nM.

Turning to `CCC(CC)OC[C@]1(O)CC[C@]2(CCN(c3ccc(O[C@@H](C)C(F)(F)F)nc3)C2=O)CC1` [Example 328, (5α,8α)-8-(1-Ethyl-propoxymethyl)-8-hydroxy-2-[6-((S)-2,2,2-trifluoro-1-methyl-ethoxy)-pyridin-3-yl]-2-aza-spiro[4.5]decan-1-one], the IC50 stood at 10 nM.

With `COC[C@]1(O)CC[C@]2(CCN(c3ccc(OC(C)C)nc3)C2=O)CC1` [Example 329, (5α,8α)-8-Hydroxy-2-(6-isopropoxy-pyridin-3-yl)-8-methoxymethyl-2-aza-spiro[4.5]decan-1-one], the IC50 came to 170 nM.

Take `CCOC[C@]1(O)CC[C@]2(CCN(c3ccc(OC(C)C)nc3)C2=O)CC1` [Example 330, (5α,8α)-8-Ethoxymethyl-8-hydroxy-2-(6-isopropoxy-pyridin-3-yl)-2-aza-spiro[4.5]decan-1-one]: the IC50 was 40 nM.

On to `CCCS(=O)(=O)C[C@]1(O)CC[C@]2(CCN(c3ccc(C(C)(C)C)cc3)C2=O)CC1` [Example 331, (5α,8α)-2-(4-tert-Butyl-phenyl)-8-hydroxy-8-(propane-1-sulfonylmethyl)-2-aza-spiro[4.5]decan-1-one], for which the IC50 is 12 nM.

Regarding `CC(C)CS(=O)(=O)C[C@]1(O)CC[C@]2(CCN(c3ccc(C(C)(C)C)cc3)C2=O)CC1` [Example 332, (5α,8α)-2-(4-tert-Butyl-phenyl)-8-hydroxy-8-(2-methyl-propane-1-sulfonylmethyl)-2-aza-spiro[4.5]decan-1-one], the IC50 came to 7 nM.

Turning to `CC(C)S(=O)(=O)C[C@]1(O)CC[C@]2(CCN(c3ccc(C(C)(C)C)cc3)C2=O)CC1` [Example 333, (5α,8α)-2-(4-tert-Butyl-phenyl)-8-hydroxy-8-(propane-2-sulfonylmethyl)-2-aza-spiro[4.5]decan-1-one], the IC50 was determined as 8 nM.

Take `CC(C)(C)c1ccc(N2CC[C@]3(CC[C@@](O)(CS(=O)(=O)C(C)(C)C)CC3)C2=O)cc1` [Example 334, (5α,8α)-2-(4-tert-Butyl-phenyl)-8-hydroxy-8-(2-methyl-propane-2-sulfonylmethyl)-2-aza-spiro[4.5]decan-1-one]: the IC50 was determined as 8 nM.

As for `CCCS(=O)(=O)C[C@]1(O)CC[C@]2(CCN(c3ccc(OC(C)C)nc3)C2=O)CC1` [Example 335, (5α,8α)-8-Hydroxy-2-(6-isopropoxy-pyridin-3-yl)-8-(propane-1-sulfonylmethyl)-2-aza-spiro[4.5]decan-1-one], the IC50 was 50 nM.

Regarding `O=C1N(c2ccc3c(c2)OC(F)(F)O3)CC[C@]12CC[C@@](O)(C(F)(F)F)CC2` [Example 336, (5α,8α)-2-(2,2-Difluoro-benzo[1,3]dioxol-5-yl)-8-hydroxy-8-trifluoromethyl-2-aza-spiro[4.5]decan-1-one], the IC50 was 210 nM.
